Source: patent US11407977B2, “Tissue scaffolds for electrically excitable cells” (Innovative Surface Technologies, Inc., priority 2013, dated 2022)

Tested on: bioartificial rat hippocampal brain slice
Test: Evoked fEPSP field recording on bioartificial tissue scaffold with antagonist cocktail
Type: cell-based
Details: cocktail in ACSF: CNQX 10 microM, APV 50 microM, Bicuculline Methbromide 50 microM; 10 minute wash-in; 28 d.i.v.; drug-subtracted average fEPSP, FIG. 12
Method: Dissociated hippocampal cells were seeded on open-field scaffolds and grown in an incubator as described in Example 9, to generate bioartificial open field hippocampal brain tissue “slices.” FIG. 11 is a photo micrograph of the bioartificial tissue, on its scaffold, in a conventional field recording chamber.
Bioartificial tissue scaffolds were removed from the incubator for electrophysiological testing between 14-90 days in vitro (d.i.v.). For electrophysiological field recordings, bioartificial tissue scaffolds were suspended on a nylon mesh in a small (350-400 μl) recording chamber (FIG. 11) and perfused with artificial cerebrospinal fluid (ACSF) at a rate of 2.5-3 ml/min (submerged mode). The temperature in the recording chamber was held at 30-32° C. Recordings were made using an ACSF-filled glass micropipette (2-4 MΩ) positioned as shown (FIG. 6) and connected via a head stage to the amplifier (A-M Systems model 1800). Signals were digitized at 100 kHz using a Digidata 1550 series interface (Axon instruments) running ClampEx 10.4. Synaptic responses were evoked by electrical stimulation using a bipolar tungsten electrode (tip spacing, 140 micrometers; Frederick Haer Company) and a 100 microsecond square wave test pulse was delivered at intervals of twenty seconds (FIG. 6). Stimulus-response relationship was established over the range of 0-1000 microV. […]

SMILES | effect on evoked fEPSP
N[C@@H](CCCP(=O)(O)O)C(=O)O [APV] | sensitivity of the bioartificial rat hippocampal brain slice
N#Cc1cc2[nH]c(=O)c(=O)[nH]c2cc1[N+](=O)[O-] [CNQX] | sensitivity of the bioartificial rat hippocampal brain slice
